Data from patent US12655116B2, “Substituted isophthalic acid diamides” (Bayer Aktiengesellschaft, priority 2020, dated 2026).

Tests used:
[1] = system: POLCO; test: Pre-emergence herbicidal action against POLCO; type: in vivo, Polygonum convolvulus; details: Fallopia convolvulus, 504 h; for pest or weed control at 80 g/ha: dosage 80 g/ha; for pest or weed control at 320 g/ha: dosage 320 g/ha
Outline: (§1)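 Sandy loam pots, seeds covered with soil, then surface-treated with WP or EC formulations at 600–800 l/ha water plus 0.2% wetting agent. Greenhouse, 3 weeks. Percent damage vs untreated controls.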

[2] = system: ALOMY; test: Post-emergence herbicidal action against ALOMY; type: in vivo, Alopecurus myosuroides; details: Alopecurus myosuroides, 504 h, visual assessment about 3 weeks after treatment vs untreated controls; for pest or weed control at 20 g/ha: dosage 20 g/ha; for pest or weed control at 80 g/ha: dosage 80 g/ha
Outline: (§2)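 Herbicidal action is a visual percentage rating (0% = as untreated control, 100% = plants dead) made roughly 3 weeks after treatment. Plants were grown in sandy loam in the greenhouse and treated at the one-leaf stage, 2 to 3 weeks post-sowing. Treatment was a foliar spray of wettable-powder or emulsion-concentrate formulations at 600 to 800 l/ha water plus 0.2% wetting agent.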

[3] = system: VIOTR; test: Post-emergence herbicidal action against VIOTR; type: in vivo, Viola tricolor; details: Viola tricolor, 504 h
Outline: as §2

[4] = system: VERPE; test: Post-emergence herbicidal action against VERPE; type: in vivo, Veronica persica; details: Veronica persica, 504 h
Outline: as §2

[5] = system: AMARE; test: Pre-emergence herbicidal action against AMARE; type: in vivo, Amaranthus retroflexus; details: Amaranthus retroflexus, 504 h, 100% = plants have died, 0% = like control plants; for pest or weed control at 20 g/ha / pest or weed control at 80 g/ha: scored visually after 3 weeks vs untreated controls; for pest or weed control at 320 g/ha: scored visually after 3 weeks
Outline: as §1

[6] = system: PHBPU; test: Post-emergence herbicidal action against PHBPU; type: in vivo, Pharbitis purpurea; details: Ipomoea purpurea, 504 h; for pest or weed control at 20 g/ha: dosage 20 g/ha; for pest or weed control at 80 g/ha: dosage 80 g/ha
Outline: as §2

[7] = system: HORMU; test: Pre-emergence herbicidal action against HORMU; type: in vivo, Hordeum murinum; details: Hordeum murinum, 504 h, pre-emergence
Outline: as §1

[8] = system: LOLRI; test: Pre-emergence herbicidal action against LOLRI; type: in vivo, Lolium rigidum; details: Lolium rigidum, 504 h, 320 g/ha
Outline: as §1

[9] = system: AMARE; test: Post-emergence herbicidal action against AMARE; type: in vivo, Amaranthus retroflexus; details: Amaranthus retroflexus, 504 h, visual assessment about 3 weeks after treatment, 100% = plants have died, 0% = like control plants
Outline: as §2

[10] = system: ECHCG; test: Pre-emergence herbicidal action against ECHCG; type: in vivo, Echinochloa crus-galli; details: Echinochloa crus-galli, 504 h
Outline: as §1

[11] = system: STEME; test: Pre-emergence herbicidal action against STEME; type: in vivo, Stellaria media; details: Stellaria media, 504 h; for pest or weed control at 20 g/ha: dosage 20 g/ha; for pest or weed control at 80 g/ha: dosage 80 g/ha; for pest or weed control at 320 g/ha: dosage 320 g/ha
Outline: as §1

[12] = system: ABUTH; test: Post-emergence herbicidal action against ABUTH; type: in vivo, Abutilon theophrasti; details: Abutilon theophrasti, 504 h, visual assessment about 3 weeks after treatment vs untreated controls; for pest or weed control at 5 g/ha: dosage 5 g/ha; for pest or weed control at 20 g/ha: dosage 20 g/ha; for pest or weed control at 80 g/ha: dosage 80 g/ha
Outline: as §2

[13] = system: ABUTH; test: Pre-emergence herbicidal action against ABUTH; type: in vivo, Abutilon theophrasti; details: Abutilon theophrasti, 504 h; for pest or weed control at 80 g/ha: scored visually after 3 weeks vs untreated controls (100% = plants have died, 0% = like control plants); for pest or weed control at 320 g/ha: Dosage: 320 g/ha, scored visually after 3 weeks; for pest or weed control at 320 g/ha / pest or weed control at 20 g/ha: 100% = plants have died, 0% = like control plants; for pest or weed control at 20 g/ha: dosage 20 g/ha, scored visually after 3 weeks vs untreated controls, read-out: Pre-emergence action against ABUTH (herbicidal activity in percent)
Outline: as §1

[14] = system: LOLRI; test: Post-emergence herbicidal action against LOLRI; type: in vivo, Lolium rigidum; details: Lolium rigidum, 504 h; for pest or weed control at 80 g/ha: dosage 80 g/ha
Outline: as §2

[15] = system: AVEFA; test: Pre-emergence herbicidal action against AVEFA; type: in vivo, Avena fatua; details: Avena fatua, 504 h, pre-emergence
Outline: as §1

[16] = system: MATIN; test: Post-emergence herbicidal action against MATIN; type: in vivo, Matricaria inodora; details: Tripleurospermum inodorum, 504 h; for pest or weed control at 5 g/ha: dosage 5 g/ha; for pest or weed control at 20 g/ha: dosage 20 g/ha; for pest or weed control at 80 g/ha: dosage 80 g/ha
Outline: as §2

[17] = system: VIOTR; test: Pre-emergence herbicidal action against VIOTR; type: in vivo, Viola tricolor; details: Viola tricolor, 504 h; for pest or weed control at 20 g/ha: dosage 20 g/ha; for pest or weed control at 80 g/ha: dosage 80 g/ha; for pest or weed control at 320 g/ha: dosage 320 g/ha
Outline: as §1

[18] = system: SETVI; test: Pre-emergence herbicidal action against SETVI; type: in vivo, Setaria viridis; details: Setaria viridis, 504 h; for pest or weed control at 80 g/ha: dosage 80 g/ha; for pest or weed control at 320 g/ha: dosage 320 g/ha
Outline: as §1

[19] = system: HORMU; test: Post-emergence herbicidal action against HORMU; type: in vivo, Hordeum murinum; details: Hordeum murinum, 504 h; for pest or weed control at 20 g/ha: dosage 20 g/ha; for pest or weed control at 80 g/ha: dosage 80 g/ha
Outline: as §2

[20] = system: SETVI; test: Post-emergence herbicidal action against SETVI; type: in vivo, Setaria viridis; details: Setaria viridis, 504 h; for pest or weed control at 20 g/ha: dosage 20 g/ha; for pest or weed control at 80 g/ha: dosage 80 g/ha
Outline: as §2

[21] = system: STEME; test: Post-emergence herbicidal action against STEME; type: in vivo, Stellaria media; details: Stellaria media, 504 h; for pest or weed control at 5 g/ha: dosage 5 g/ha
Outline: as §2

[22] = system: ALOMY; test: Pre-emergence herbicidal action against ALOMY; type: in vivo, Alopecurus myosuroides; details: Alopecurus myosuroides, 504 h, pre-emergence; for pest or weed control at 80 g/ha: scored visually after 3 weeks vs untreated controls (100% = plants have died, 0% = like control plants)
Outline: as §1

[23] = 20 g/ha, scored visually after 3 weeks, 100% = plants have died, 0% = like control plants
[24] = scored visually after 3 weeks, 100% = plants have died, 0% = like control plants

Compound: CCn1nnnc1NC(=O)c1ccc(C(F)(F)F)c(C(=O)NC)c1Cl [Example 2-129]
- pest or weed control at 20 g/ha ([1]; dosage 20 g/ha): 100%
- pest or weed control at 80 g/ha [1]: 100%
- pest or weed control at 320 g/ha [1]: 100%
- pest or weed control at 5 g/ha ([2]; dosage 5 g/ha): 100%
- pest or weed control at 20 g/ha [2]: 100%
- pest or weed control at 80 g/ha [2]: 100%
- pest or weed control at 5 g/ha [3]: 80%
- pest or weed control at 20 g/ha [3]: 100%
- pest or weed control at 80 g/ha [3]: 100%
- pest or weed control at 20 g/ha ([4]; 20 g/ha): 80%
- pest or weed control at 80 g/ha [4]: 90%
- pest or weed control at 20 g/ha [5]: 100%
- pest or weed control at 80 g/ha [5]: 100%
- pest or weed control at 320 g/ha [5]: 100%
- pest or weed control at 20 g/ha [6]: 100%
- pest or weed control at 80 g/ha [6]: 100%
- pest or weed control at 80 g/ha [7]: 90%
- pest or weed control at 320 g/ha [7]: 100%
- pest or weed control at 320 g/ha [8]: 100%
- pest or weed control at 20 g/ha [9]: 100%
- pest or weed control at 80 g/ha [9]: 100%
- pest or weed control at 80 g/ha [10]: 100%
- pest or weed control at 320 g/ha [10]: 100%
- pest or weed control at 20 g/ha [11]: 80%
- pest or weed control at 80 g/ha [11]: 80%
- pest or weed control at 320 g/ha [11]: 100%
- pest or weed control at 5 g/ha [12]: 100%
- pest or weed control at 20 g/ha [12]: 100%
- pest or weed control at 80 g/ha [12]: 100%
- pest or weed control at 80 g/ha [13]: 100%
- pest or weed control at 320 g/ha [13]: 100%
- pest or weed control at 20 g/ha [13]: 100%
- pest or weed control at 20 g/ha ([14]; dosage 20 g/ha): 100%
- pest or weed control at 80 g/ha [14]: 100%
- pest or weed control at 80 g/ha [15]: 100%
- pest or weed control at 20 g/ha [15, 23]: 100%
- pest or weed control at 320 g/ha [15, 24]: 100%
- pest or weed control at 5 g/ha [16]: 80%
- pest or weed control at 20 g/ha [16]: 100%
- pest or weed control at 80 g/ha [16]: 100%
- pest or weed control at 20 g/ha [17]: 100%
- pest or weed control at 80 g/ha [17]: 100%
- pest or weed control at 320 g/ha [17]: 100%
- pest or weed control at 20 g/ha ([18]; dosage 20 g/ha): 100%
- pest or weed control at 80 g/ha [18]: 100%
- pest or weed control at 320 g/ha [18]: 100%
- pest or weed control at 5 g/ha ([19]; dosage 5 g/ha): 80%
- pest or weed control at 20 g/ha [19]: 90%
- pest or weed control at 80 g/ha [19]: 100%
- pest or weed control at 5 g/ha ([20]; dosage 5 g/ha): 100%
- pest or weed control at 20 g/ha [20]: 100%
- pest or weed control at 80 g/ha [20]: 100%
- pest or weed control at 20 g/ha [21]: 100%
- pest or weed control at 80 g/ha [21]: 100%
- pest or weed control at 5 g/ha [21]: 100%
- pest or weed control at 80 g/ha [22]: 100%
- pest or weed control at 20 g/ha [22, 23]: 90%
- pest or weed control at 320 g/ha [22, 24]: 100%

Compound: CCCn1nnnc1NC(=O)c1ccc(C(F)(F)F)c(C(=O)NC)c1Cl [Example 3-129]
- pest or weed control at 80 g/ha [1]: 80%
- pest or weed control at 320 g/ha [1]: 100%
- pest or weed control at 20 g/ha [2]: 80%
- pest or weed control at 80 g/ha [2]: 100%
- pest or weed control at 5 g/ha [3]: 80%
- pest or weed control at 20 g/ha [3]: 90%
- pest or weed control at 80 g/ha [3]: 100%
- pest or weed control at 80 g/ha [4]: 80%
- pest or weed control at 20 g/ha [5]: 100%
- pest or weed control at 80 g/ha [5]: 100%
- pest or weed control at 320 g/ha [5]: 100%
- pest or weed control at 20 g/ha [6]: 90%
- pest or weed control at 80 g/ha [6]: 100%
- pest or weed control at 80 g/ha [7]: 90%
- pest or weed control at 320 g/ha [7]: 100%
- pest or weed control at 320 g/ha [8]: 100%
- pest or weed control at 20 g/ha [9]: 100%
- pest or weed control at 80 g/ha [9]: 100%
- pest or weed control at 80 g/ha [10]: 80%
- pest or weed control at 320 g/ha [10]: 100%
- pest or weed control at 20 g/ha [11]: 90%
- pest or weed control at 80 g/ha [11]: 100%
- pest or weed control at 320 g/ha [11]: 100%
- pest or weed control at 5 g/ha [12]: 100%
- pest or weed control at 20 g/ha [12]: 100%
- pest or weed control at 80 g/ha [12]: 100%
- pest or weed control at 80 g/ha [13]: 100%
- pest or weed control at 320 g/ha [13]: 100%
- pest or weed control at 20 g/ha [13]: 100%
- pest or weed control at 80 g/ha [14]: 80%
- pest or weed control at 80 g/ha [15]: 100%
- pest or weed control at 320 g/ha [15, 24]: 100%
- pest or weed control at 5 g/ha [16]: 100%
- pest or weed control at 20 g/ha [16]: 100%
- pest or weed control at 80 g/ha [16]: 100%
- pest or weed control at 20 g/ha [17]: 100%
- pest or weed control at 80 g/ha [17]: 100%
- pest or weed control at 320 g/ha [17]: 100%
- pest or weed control at 80 g/ha [18]: 90%
- pest or weed control at 320 g/ha [18]: 100%
- pest or weed control at 20 g/ha [19]: 90%
- pest or weed control at 80 g/ha [19]: 100%
- pest or weed control at 20 g/ha [20]: 100%
- pest or weed control at 80 g/ha [20]: 100%
- pest or weed control at 20 g/ha [21]: 100%
- pest or weed control at 80 g/ha [21]: 100%
- pest or weed control at 5 g/ha [21]: 100%
- pest or weed control at 80 g/ha [22]: 80%
- pest or weed control at 320 g/ha [22, 24]: 100%
